Drawing on paper PMC9927415, “Tyrosine Kinase Inhibitors Display Potent Activity against Cryptosporidium parvum” (Microbiology Spectrum, 2022), this text covers inhibition for 2 compounds.

Common to all, as to test: KINOMEscan competitive binding
Assay [1] addresses T1, TLK1 (Homo sapiens, UniProt Q9UKI8).
T1 construct: purchased DiscoverX (KINOMEscan)
T1 sequence (Q9UKI8 1-766): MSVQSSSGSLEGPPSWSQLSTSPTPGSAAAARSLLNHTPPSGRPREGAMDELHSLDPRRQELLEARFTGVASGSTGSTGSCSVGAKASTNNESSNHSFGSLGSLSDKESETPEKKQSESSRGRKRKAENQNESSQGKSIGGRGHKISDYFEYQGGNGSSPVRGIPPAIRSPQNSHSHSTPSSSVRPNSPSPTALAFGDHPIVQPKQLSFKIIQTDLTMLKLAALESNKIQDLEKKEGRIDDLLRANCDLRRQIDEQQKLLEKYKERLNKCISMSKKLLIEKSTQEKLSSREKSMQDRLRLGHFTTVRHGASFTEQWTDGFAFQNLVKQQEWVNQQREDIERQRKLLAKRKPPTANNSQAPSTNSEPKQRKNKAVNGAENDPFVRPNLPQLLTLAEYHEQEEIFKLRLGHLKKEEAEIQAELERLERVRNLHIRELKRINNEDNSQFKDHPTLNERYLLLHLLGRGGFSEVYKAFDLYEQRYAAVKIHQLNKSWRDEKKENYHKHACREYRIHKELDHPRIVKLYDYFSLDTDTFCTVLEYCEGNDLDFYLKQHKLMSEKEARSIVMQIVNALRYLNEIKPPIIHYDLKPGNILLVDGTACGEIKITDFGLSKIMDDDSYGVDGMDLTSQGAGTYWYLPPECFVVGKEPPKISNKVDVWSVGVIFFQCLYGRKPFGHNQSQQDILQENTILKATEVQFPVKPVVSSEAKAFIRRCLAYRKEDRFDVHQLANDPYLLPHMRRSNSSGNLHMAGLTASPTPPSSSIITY
Particulars: n=1, read-out: Percent inhibition, TLK1.

Assay [2] addresses T2, PAK1 (Homo sapiens, UniProt Q13153).
T2 construct: purchased DiscoverX (KINOMEscan)
Particulars: n=1, read-out: Percent inhibition, PAK1.

For assay [3], the target named is T3, PAK3 (Homo sapiens, UniProt O75914).
T3 construct: purchased DiscoverX (KINOMEscan)
Particulars: n=1, read-out: Percent inhibition, PAK3.

In assay [4] the target is T4, PTK6 (Homo sapiens, UniProt Q13882).
T4 construct: purchased DiscoverX (KINOMEscan)
T4 sequence (Q13882 whole entry): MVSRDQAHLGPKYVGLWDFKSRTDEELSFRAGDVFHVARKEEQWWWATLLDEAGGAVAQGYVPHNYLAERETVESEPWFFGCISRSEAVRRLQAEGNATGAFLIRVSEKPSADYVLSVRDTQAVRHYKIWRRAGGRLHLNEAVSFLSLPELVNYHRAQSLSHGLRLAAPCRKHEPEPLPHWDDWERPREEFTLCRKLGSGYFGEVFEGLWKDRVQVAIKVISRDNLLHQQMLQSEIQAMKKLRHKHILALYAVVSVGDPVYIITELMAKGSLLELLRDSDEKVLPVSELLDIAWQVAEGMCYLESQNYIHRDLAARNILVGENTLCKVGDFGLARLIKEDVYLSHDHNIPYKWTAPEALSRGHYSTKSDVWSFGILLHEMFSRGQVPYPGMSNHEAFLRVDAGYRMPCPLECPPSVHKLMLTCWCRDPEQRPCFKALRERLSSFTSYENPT
Particulars: n=1, read-out: Percent inhibition, PTK6.

Assay [5] has as its target T5, RPS6KA6(Kin.Dom.1) (Homo sapiens, UniProt Q9UK32).
T5 construct: RPS6KA6(Kin.Dom.1); purchased DiscoverX (KINOMEscan)
Particulars: n=1, read-out: Percent inhibition, RPS6KA6(Kin.Dom.1).

The target of assay [6] is T6, RPS6KA3(Kin.Dom.1) (Homo sapiens, UniProt P51812).
T6 construct: RPS6KA3(Kin.Dom.1); purchased DiscoverX (KINOMEscan)
T6 sequence (P51812 1-397 limits assumed): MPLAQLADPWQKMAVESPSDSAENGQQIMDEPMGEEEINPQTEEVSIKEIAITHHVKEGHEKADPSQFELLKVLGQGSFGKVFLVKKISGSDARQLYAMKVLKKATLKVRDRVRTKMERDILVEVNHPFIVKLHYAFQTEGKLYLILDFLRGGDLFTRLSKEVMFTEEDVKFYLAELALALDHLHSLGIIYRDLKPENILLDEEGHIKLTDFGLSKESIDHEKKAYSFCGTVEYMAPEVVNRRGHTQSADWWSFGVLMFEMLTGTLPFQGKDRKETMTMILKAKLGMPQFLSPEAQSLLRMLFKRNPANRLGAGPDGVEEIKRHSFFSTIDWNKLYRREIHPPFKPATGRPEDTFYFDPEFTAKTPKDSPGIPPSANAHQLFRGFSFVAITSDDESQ
Particulars: n=1, read-out: Percent inhibition, RPS6KA3(Kin.Dom.1).

The target in assay [7] is T7, TRKA (Homo sapiens, UniProt P04629).
T7 construct: purchased DiscoverX (KINOMEscan)
T7 sequence (P04629 33-796): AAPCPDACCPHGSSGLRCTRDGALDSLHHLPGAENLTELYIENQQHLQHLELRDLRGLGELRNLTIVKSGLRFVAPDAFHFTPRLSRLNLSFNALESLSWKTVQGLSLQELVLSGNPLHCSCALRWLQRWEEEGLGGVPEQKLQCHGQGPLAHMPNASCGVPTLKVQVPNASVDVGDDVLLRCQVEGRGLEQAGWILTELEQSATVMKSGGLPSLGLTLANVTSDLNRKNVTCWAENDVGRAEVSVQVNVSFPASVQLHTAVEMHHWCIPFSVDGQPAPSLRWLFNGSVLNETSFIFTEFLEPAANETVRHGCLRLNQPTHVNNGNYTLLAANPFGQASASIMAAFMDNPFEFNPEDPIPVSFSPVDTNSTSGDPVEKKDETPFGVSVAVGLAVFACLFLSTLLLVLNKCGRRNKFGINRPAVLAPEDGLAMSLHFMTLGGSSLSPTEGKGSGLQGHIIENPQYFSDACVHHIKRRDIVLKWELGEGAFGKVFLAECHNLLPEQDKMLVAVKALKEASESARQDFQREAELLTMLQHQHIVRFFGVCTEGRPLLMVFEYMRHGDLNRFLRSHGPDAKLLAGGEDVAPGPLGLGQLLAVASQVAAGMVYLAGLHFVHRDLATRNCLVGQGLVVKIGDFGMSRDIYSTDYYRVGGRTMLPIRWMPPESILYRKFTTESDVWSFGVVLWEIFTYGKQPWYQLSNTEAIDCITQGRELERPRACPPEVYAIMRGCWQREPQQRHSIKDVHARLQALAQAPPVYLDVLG
Particulars: n=1, read-out: Percent inhibition, TRKA.

Assay [8] deals with T8, PRKG2 (Homo sapiens, UniProt Q13237).
T8 construct: purchased DiscoverX (KINOMEscan)
T8 sequence (Q13237 1-762): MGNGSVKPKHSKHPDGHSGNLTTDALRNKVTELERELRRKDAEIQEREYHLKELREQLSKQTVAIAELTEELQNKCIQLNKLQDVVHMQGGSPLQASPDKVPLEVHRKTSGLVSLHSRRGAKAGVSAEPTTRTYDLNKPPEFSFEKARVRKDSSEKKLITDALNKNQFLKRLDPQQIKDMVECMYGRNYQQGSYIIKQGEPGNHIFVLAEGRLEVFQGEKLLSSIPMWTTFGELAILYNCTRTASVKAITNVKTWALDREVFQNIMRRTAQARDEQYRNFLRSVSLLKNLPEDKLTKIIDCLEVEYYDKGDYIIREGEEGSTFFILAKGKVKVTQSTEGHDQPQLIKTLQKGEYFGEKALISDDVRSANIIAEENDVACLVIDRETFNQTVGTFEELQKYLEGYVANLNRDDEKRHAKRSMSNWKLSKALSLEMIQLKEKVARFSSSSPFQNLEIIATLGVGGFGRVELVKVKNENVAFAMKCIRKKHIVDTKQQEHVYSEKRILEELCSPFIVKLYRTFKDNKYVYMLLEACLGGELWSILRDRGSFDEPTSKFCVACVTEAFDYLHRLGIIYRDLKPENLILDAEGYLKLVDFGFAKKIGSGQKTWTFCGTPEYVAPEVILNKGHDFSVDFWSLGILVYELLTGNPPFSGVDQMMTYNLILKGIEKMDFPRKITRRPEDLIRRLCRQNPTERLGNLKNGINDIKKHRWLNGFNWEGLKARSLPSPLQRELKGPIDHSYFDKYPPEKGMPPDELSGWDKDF
Particulars: n=1, read-out: Percent inhibition, PRKG2.

For assay [9], the target named is T9, SLK (Homo sapiens, UniProt Q9H2G2).
T9 construct: purchased DiscoverX (KINOMEscan)
T9 sequence (Q9H2G2 whole entry): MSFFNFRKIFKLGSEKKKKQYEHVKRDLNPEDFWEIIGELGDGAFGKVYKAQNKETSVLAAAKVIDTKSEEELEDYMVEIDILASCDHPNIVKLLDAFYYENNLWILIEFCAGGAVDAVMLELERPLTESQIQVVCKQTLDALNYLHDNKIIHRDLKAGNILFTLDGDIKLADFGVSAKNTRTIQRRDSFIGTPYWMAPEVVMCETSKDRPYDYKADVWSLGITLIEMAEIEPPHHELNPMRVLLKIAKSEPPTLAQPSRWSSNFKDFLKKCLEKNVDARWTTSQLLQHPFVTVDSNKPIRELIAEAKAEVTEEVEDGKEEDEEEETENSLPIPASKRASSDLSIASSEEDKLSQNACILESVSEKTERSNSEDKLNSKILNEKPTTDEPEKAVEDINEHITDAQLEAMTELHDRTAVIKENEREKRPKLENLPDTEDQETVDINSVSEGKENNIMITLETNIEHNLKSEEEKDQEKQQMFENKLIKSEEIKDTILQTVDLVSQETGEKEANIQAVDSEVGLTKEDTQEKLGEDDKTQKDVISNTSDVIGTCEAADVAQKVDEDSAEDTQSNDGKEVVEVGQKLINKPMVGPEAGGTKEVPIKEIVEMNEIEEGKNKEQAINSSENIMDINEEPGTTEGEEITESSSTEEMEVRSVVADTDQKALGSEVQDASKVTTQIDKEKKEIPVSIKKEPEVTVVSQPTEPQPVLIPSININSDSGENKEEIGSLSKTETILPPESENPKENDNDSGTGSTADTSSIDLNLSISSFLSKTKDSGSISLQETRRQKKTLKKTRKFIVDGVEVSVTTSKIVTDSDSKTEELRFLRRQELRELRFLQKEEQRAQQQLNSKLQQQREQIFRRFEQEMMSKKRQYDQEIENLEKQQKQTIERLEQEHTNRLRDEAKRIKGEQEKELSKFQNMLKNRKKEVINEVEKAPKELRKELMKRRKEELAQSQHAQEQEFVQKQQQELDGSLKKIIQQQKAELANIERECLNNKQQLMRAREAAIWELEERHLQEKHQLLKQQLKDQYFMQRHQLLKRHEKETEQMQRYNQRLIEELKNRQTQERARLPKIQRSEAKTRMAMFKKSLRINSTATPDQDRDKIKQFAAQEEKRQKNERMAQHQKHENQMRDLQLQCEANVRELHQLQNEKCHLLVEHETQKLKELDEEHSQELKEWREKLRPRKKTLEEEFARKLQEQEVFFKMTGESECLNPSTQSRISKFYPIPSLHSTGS
Particulars: n=1, read-out: Percent inhibition, SLK.

Assay [10] deals with T10, PLK3 (Homo sapiens, UniProt Q9H4B4).
T10 construct: purchased DiscoverX (KINOMEscan)
T10 sequence (Q9H4B4 whole entry): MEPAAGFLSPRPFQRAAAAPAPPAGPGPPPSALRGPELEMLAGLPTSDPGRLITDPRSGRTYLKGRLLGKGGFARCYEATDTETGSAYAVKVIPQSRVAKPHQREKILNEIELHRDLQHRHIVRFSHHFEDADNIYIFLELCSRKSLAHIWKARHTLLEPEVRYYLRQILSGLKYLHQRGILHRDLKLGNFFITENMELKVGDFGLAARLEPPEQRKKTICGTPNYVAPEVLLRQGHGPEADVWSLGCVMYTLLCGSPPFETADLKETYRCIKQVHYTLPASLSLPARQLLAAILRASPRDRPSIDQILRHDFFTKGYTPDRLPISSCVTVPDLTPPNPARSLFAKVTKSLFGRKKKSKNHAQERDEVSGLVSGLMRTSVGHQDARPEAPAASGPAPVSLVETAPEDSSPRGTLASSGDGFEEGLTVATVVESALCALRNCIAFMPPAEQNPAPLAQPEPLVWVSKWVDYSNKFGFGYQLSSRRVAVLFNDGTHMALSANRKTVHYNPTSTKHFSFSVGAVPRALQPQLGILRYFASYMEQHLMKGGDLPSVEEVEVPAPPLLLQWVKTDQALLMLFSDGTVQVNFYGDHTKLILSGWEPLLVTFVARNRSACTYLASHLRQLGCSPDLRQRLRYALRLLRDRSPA
Particulars: n=1, read-out: Percent inhibition, PLK3.

Assay [11] concerns the target T11, TNK2 (Homo sapiens, UniProt Q07912).
T11 construct: purchased DiscoverX (KINOMEscan)
Particulars: n=1, read-out: Percent inhibition, TNK2.

For assay [12], the target named is T12, PHKG1 (Homo sapiens, UniProt Q16816).
T12 construct: purchased DiscoverX (KINOMEscan)
Particulars: n=1, read-out: Percent inhibition, PHKG1.

The target of assay [13] is T13, PCTK1 (Homo sapiens, UniProt Q00536).
T13 construct: purchased DiscoverX (KINOMEscan)
Particulars: n=1, read-out: Percent inhibition, PCTK1.

Assay [14] has as its target T14, TYK2(Kin.Dom.2) (Homo sapiens, UniProt P29597).
T14 construct: TYK2(Kin.Dom.2); purchased DiscoverX (KINOMEscan)
T14 sequence (P29597 889-1187 limits assumed): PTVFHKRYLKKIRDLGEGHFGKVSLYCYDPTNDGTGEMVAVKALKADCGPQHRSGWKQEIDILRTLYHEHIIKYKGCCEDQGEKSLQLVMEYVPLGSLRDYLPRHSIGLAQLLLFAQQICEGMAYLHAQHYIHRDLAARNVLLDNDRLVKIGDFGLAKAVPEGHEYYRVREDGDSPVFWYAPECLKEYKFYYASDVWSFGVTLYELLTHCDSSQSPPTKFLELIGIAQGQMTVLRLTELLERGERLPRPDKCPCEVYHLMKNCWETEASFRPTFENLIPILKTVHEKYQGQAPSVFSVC
Particulars: n=1, read-out: Percent inhibition, TYK2(Kin.Dom.2).

Each structure is given as a SMILES string.

T5 sequence (Q9UK32 1-400 limits assumed): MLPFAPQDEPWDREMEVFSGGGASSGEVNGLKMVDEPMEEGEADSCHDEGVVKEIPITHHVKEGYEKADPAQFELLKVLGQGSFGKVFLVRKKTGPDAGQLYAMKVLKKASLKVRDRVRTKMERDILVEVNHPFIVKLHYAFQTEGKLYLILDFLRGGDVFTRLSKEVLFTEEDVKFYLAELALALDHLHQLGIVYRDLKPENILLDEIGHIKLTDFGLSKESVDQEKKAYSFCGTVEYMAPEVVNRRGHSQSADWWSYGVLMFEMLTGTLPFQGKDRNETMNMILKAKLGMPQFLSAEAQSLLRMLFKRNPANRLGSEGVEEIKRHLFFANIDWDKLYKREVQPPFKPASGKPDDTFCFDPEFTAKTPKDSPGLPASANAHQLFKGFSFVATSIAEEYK
T11 sequence (Q07912 whole entry): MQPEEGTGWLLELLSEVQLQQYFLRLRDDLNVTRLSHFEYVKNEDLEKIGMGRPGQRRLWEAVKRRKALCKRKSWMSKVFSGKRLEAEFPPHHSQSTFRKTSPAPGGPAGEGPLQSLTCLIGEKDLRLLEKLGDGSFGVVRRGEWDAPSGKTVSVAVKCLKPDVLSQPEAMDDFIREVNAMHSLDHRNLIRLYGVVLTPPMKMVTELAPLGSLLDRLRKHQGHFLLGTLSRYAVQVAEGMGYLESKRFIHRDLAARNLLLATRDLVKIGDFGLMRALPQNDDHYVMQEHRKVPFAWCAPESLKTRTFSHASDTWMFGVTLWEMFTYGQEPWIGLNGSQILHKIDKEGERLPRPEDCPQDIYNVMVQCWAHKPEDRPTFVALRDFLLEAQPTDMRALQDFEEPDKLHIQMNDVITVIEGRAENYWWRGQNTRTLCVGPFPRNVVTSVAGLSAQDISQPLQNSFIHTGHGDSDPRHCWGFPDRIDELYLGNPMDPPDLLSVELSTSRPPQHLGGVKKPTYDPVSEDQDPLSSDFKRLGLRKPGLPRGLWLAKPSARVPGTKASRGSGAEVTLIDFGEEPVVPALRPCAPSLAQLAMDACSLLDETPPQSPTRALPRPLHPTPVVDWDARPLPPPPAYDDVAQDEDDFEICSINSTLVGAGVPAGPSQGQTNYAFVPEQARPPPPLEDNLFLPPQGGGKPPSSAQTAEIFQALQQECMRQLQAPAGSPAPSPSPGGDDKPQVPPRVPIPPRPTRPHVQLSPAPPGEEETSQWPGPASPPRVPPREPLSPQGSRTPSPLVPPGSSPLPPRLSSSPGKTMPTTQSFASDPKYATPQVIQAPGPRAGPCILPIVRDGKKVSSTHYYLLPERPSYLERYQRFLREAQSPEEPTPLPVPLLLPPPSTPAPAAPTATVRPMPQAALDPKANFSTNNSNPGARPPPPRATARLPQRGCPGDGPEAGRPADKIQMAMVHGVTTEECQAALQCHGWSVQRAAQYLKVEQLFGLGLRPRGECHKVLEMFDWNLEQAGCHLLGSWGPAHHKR

The inhibition is how much of the control response was suppressed. On to `Clc1ccc(Nc2ncc(-c3ccccc3)s2)cc1` [Compound 10], for which the inhibition at 10 µM in assay [1], in assay [2], in assay [3], in assay [4], in assay [5] and in assay [6] was 0% in each case. Also, the inhibition at 10 µM in assay [7], in assay [8], in [9], in assay [10], in assay [11] and in [12] was 0% throughout. Moreover, the inhibition at 10 µM in assay [13] and in assay [14] was 0% throughout.

On to `Nc1ncc2c(-c3ccncc3)c[nH]c2n1` [Compound 11], for which the inhibition at 10 µM in [1], in [2], in [3], in assay [4], in assay [5] and in assay [6] was 0% each time. For the same compound, the inhibition at 10 µM is 0% in [7]; 0% in assay [8]; 75.5% in assay [9]; 0% in assay [10]; 0% in assay [11]; 0% in [12]. Also, the inhibition at 10 µM is 78.2% in assay [13] and 0% in assay [14].
